22 compounds from US9169254B2, “Spiroimidazolone derivative” (Chugai Seiyaku Kabushiki Kaisha, priority 2009, dated 2015) can be followed below.

This test concerns the target T1, human PTH1 receptor (Homo sapiens, UniProt Q03431).
T1 sequence (Q03431 27-593): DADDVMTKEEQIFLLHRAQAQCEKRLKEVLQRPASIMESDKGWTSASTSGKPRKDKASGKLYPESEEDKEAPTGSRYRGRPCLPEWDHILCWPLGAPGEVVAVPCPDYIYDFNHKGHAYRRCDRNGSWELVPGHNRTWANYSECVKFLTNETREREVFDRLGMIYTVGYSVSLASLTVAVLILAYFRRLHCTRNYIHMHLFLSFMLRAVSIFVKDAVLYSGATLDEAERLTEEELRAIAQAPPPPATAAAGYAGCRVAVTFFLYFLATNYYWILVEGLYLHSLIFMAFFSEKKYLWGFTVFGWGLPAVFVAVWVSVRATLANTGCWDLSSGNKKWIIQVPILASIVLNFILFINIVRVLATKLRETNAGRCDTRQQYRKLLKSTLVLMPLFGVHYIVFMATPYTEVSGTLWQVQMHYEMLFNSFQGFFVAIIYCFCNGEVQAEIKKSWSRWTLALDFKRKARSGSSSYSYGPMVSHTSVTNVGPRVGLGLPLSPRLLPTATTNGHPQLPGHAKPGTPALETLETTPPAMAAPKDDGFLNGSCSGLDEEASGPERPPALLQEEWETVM
Nature of the test: In vitro cAMP signal activity in HKRK-B7 cells (LLC-PK1 cells overexpressing the human PTH1 receptor). The test is classed as cell-based. Conditions: HKRK-B7 cells, compound at 1×10^−3 M.

Setting [1] is: cAMP produced as percentage of that produced by hPTH(1-34) at 100 nM.

Consider `CO/N=C1\NC(c2cccc(OC(F)(F)F)c2)=NC12CCN(S(=O)(=O)CCc1ccc(C(=O)N(C)C)cc1C)CC2` [Compound 901, 4-{2-[4-[(Z)-methoxyimino]-2-(3-trifluoromethoxy-phenyl)-1,3,8-triaza-spiro[4.5]dec-1-ene-8-sulfonyl]-ethyl}-3,N,N-trimethyl-benzamide], for which the “cAMP production activity (%)” value under setting [1] is 1.9%. Regarding `Cc1cc(N(C)C(N)=O)cc(C)c1/C=C/[S@TB4](=O)(=O)N1CCC2(CC1)N=C(c1cccc(CCCC(F)(F)F)c1)NC2=O` [Compound 1089, 1-[3,5-dimethyl-4-((E)-2-{4-oxo-2-[3-(4,4,4-trifluoro-butyl)-phenyl]-1,3,8-triaza-spiro[4.5]dec-1-ene-8-sulfonyl}-vinyl)-phenyl]-1-methyl-urea], under setting [1], the “cAMP production activity (%)” value is recorded as 99%. On the same count and under the same terms, the same measure for `[2H]C([2H])([2H])C1([2H])CCC(C2=NC3(CCN([S@TB18](=O)(=O)/C=C/c4c(C)cc(N(C)C(N)=O)cc4C)CC3)C(=O)N2)CC1` (stereo not shown) [Compound 1110, 1-(3,5-dimethyl-4-{(E)-2-[2-(4-[1,1,1-^2H3]methyl-[4-^2H1]cyclohexyl)-4-oxo-1,3,8-triaza-spiro[4.5]dec-1-ene-8-sulfonyl]-vinyl}-phenyl)-1-methyl-urea]: 92%; for `CC(=O)N(CCN(C)C)c1cc(C)c(/C=C/S(=O)(=O)N2CCC3(CC2)N=C(c2cccc(OC(F)(F)F)c2)NC3=O)c(C)c1` [Compound 607, N-(2-dimethylamino-ethyl)-N-(3,5-dimethyl-4-{(E)-2-[4-oxo-2-(3-trifluoromethoxy-phenyl)-1,3,8-triaza-spiro[4.5]dec-1-ene-8-sulfonyl]-vinyl}-phenyl)-acetamide]: 6.5%; for `CC(=O)N(CCOCCO)c1ccc(CCS(=O)(=O)N2CCC3(CC2)N=C(C2CCC(CCC(F)(F)F)CC2)NC3=O)c(C)c1` (stereo not shown) [Compound 758, N-[2-(2-hydroxy-ethoxy)-ethyl]-N-[3-methyl-4-(2-{4-oxo-2-[4-(3,3,3-trifluoro-propyl)-cyclohexyl]-1,3,8-triaza-spiro[4.5]dec-1-ene-8-sulfonyl}-ethyl)-phenyl]-acetamide]: 98%. The same measure, in the same setting: the same measure for `O=C(Cc1cnc[nH]1)N1CCCC(C2=NC3(CCN(S(=O)(=O)CCc4cccc5ccccc45)CC3)C(=O)N2)C1` (stereo not shown) [Compound 432, 2-[1-(2-3H-imidazol-4-yl-acetyl)-piperidin-3-yl]-8-(2-naphthalen-1-yl-ethanesulfonyl)-1,3,8-triaza-spiro[4.5]dec-1-en-4-one]: 5.1%. With `Cc1cc(C(=O)N(C)C)ccc1CCS(=O)(=O)N1CCC2(CC1)N=C(C1(C(F)(F)F)CCC1)NC2=O` [Compound 137, 3,N,N-trimethyl-4-{2-[4-oxo-2-(1-trifluoromethyl-cyclobutyl)-1,3,8-triaza-spiro[4.5]dec-1-ene-8-sulfonyl]-ethyl}-benzamide], the “cAMP production activity (%)” value under setting [1] worked out at 50%. For the compound `Cc1cc(N2C(=O)CC[C@@H]2CNC(C)C)cc(C)c1/C=C/S(=O)(=O)N1CCC2(CC1)N=C(c1cccc(OC(F)(F)F)c1)NC2=O` [Compound 606, 8-((E)-2-{4-[(R)-2-(isopropylamino-methyl)-5-oxo-pyrrolidin-1-yl]-2,6-dimethyl-phenyl}-ethenesulfonyl)-2-(3-trifluoromethoxy-phenyl)-1,3,8-triaza-spiro[4.5]dec-1-en-4-one], under setting [1], the “cAMP production activity (%)” value is 28%. The same measure, in the same setting: under `CCCCCCCCCC1=NC2(CCN(S(=O)(=O)CCc3ccc(N(CCOCCO)C(C)=O)cc3C)CC2)C(=O)N1` [Compound 825, N-[2-(2-hydroxy-ethoxy)-ethyl]-N-{3-methyl-4-[2-(2-nonyl-4-oxo-1,3,8-triaza-spiro[4.5]dec-1-ene-8-sulfonyl)-ethyl]-phenyl}-acetamide] stands 114%; under `CCOCCCCCCC1=NC2(CCN(S(=O)(=O)CCc3c(C)cc(N(C)C(N)=O)cc3C)CC2)C(=O)N1` [Compound 1344, 1-(4-{2-[2-(6-ethoxy-hexyl)-4-oxo-1,3,8-triaza-spiro[4.5]dec-1-ene-8-sulfonyl]-ethyl}-3,5-dimethyl-phenyl)-1-methyl-urea], 94%. On the same count and under the same terms, the same measure for `Cc1cc(S(=O)(=O)NCC(N)=O)ccc1CCS(=O)(=O)N1CCC2(CC1)N=C(c1cccc(OC(F)(F)F)c1)NC2=O` [Compound 675, 2-(3-Methyl-4-{2-[4-oxo-2-(3-trifluoromethoxy-phenyl)-1,3,8-triaza-spiro[4.5]dec-1-ene-8-sulfonyl]-ethyl}-benzenesulfonylamino)-acetamide]: 68%; for `Cc1cc(N(CC(F)(F)F)C(N)=O)ccc1/C=C/S(=O)(=O)N1CCC2(CC1)N=C(c1cccc(OC(F)(F)F)c1)NC2=O` [Compound 731, 1-(3-Methyl-4-{(E)-2-[4-oxo-2-(3-trifluoromethoxy-phenyl)-1,3,8-triaza-spiro[4.5]dec-1-ene-8-sulfonyl]-vinyl}-phenyl)-1-(2,2,2-trifluoro-ethyl)-urea]: 54%.

Regarding `[2H]C([2H])([2H])C([2H])([2H])C([2H])([2H])C([2H])([2H])Oc1cc(C2=NC3(CCN(S(=O)(=O)/C=C/c4c(C)cc(C(=O)N5CCC(C)(O)CC5)cc4C)CC3)C(=O)N2)cc(C(F)(F)F)c1` [Compound 1233, 2-(3-[1,1,2,2,3,3,4,4,4-^2H9]butoxy-5-trifluoromethyl-phenyl)-8-{(E)-2-[4-(4-hydroxy-4-methyl-piperidine-1-carbonyl)-2,6-dimethyl-phenyl]-ethenesulfonyl}-1,3,8-triaza-spiro[4.5]dec-1-en-4-one], under setting [1], the “cAMP production activity (%)” value turned out to be 78%.

With `CC(=O)N(C[C@H](O)CO)c1cc(C)c(CCS(=O)(=O)N2CCC3(CC2)N=C(CCCCCCCCC(F)(F)F)NC3=O)c(C)c1` [Compound 824, N—((S)-2,3-dihydroxy-propyl)-N-(3,5-dimethyl-4-{2-[4-oxo-2-(9,9,9-trifluoro-nonyl)-1,3,8-triaza-spiro[4.5]dec-1-ene-8-sulfonyl]-ethyl}-phenyl)-acetamide], under setting [1], the “cAMP production activity (%)” value is given as 140%.

With `Cc1cc(C(=O)N2CCC(=O)CC2)cc(C)c1/C=C/S(=O)(=O)N1CCC2(CC1)N=C(c1ccc(F)c(C(F)(F)F)c1)NC2=O` [Compound 972, 8-{(E)-2-[2,6-dimethyl-4-(4-oxo-piperidine-1-carbonyl)-phenyl]-ethenesulfonyl}-2-(4-fluoro-3-trifluoromethyl-phenyl)-1,3,8-triaza-spiro[4.5]dec-1-en-4-one], for the setting “[…], 0.1 µM”, the “cAMP production activity (%)” value worked out at 89%. With `Cc1c(CCS(=O)(=O)N2CCC3(CC2)N=C(c2cccc(OC(F)(F)F)c2)NC3=O)cccc1C(=O)N1CCOCC1` [Compound 411, 8-{2-[2-methyl-3-(morpholine-4-carbonyl)-phenyl]-ethanesulfonyl}-2-(3-trifluoromethoxy-phenyl)-1,3,8-triaza-spiro[4.5]dec-1-en-4-one], under setting [1], the “cAMP production activity (%)” value worked out at 54%. As to `Cc1cc(C(=O)N2CCC(O)(CF)CC2)cc(C)c1/C=C/S(=O)(=O)N1CCC2(CC1)N=C(c1ccc(F)c(Cl)c1)NC2=O` [Compound 1242, 2-(3-chloro-4-fluoro-phenyl)-8-{(E)-2-[4-(4-fluoromethyl-4-hydroxy-piperidine-1-carbonyl)-2,6-dimethyl-phenyl]-ethenesulfonyl}-1,3,8-triaza-spiro[4.5]dec-1-en-4-one], the “cAMP production activity (%)” value under setting [1] was 106%. The same measure, in the same setting: the same measure for `O=C(CO)Nc1ccc(/C=C/S(=O)(=O)N2CCC3(CC2)N=C(C2CCCCC2)NC3=O)c(C(F)(F)F)c1` [Compound 196, N-{4-[(E)-2-(2-cyclohexyl-4-oxo-1,3,8-triaza-spiro[4.5]dec-1-ene-8-sulfonyl)-vinyl]-3-trifluoromethyl-phenyl}-2-hydroxy-acetamide]: 66%. For `Cc1cc(N2COCC2=O)ccc1CCS(=O)(=O)N1CCC2(CC1)N=C(C1CCC(C)CC1)NC2=O` (stereo not shown) [Compound 866, 2-(4-methyl-cyclohexyl)-8-{2-[2-methyl-4-(4-oxo-oxazolidin-3-yl)-phenyl]-ethanesulfonyl}-1,3,8-triaza-spiro[4.5]dec-1-en-4-one], the “cAMP production activity (%)” value under setting [1] is listed as 47%. In the case of `Cc1cc2ccc1CCS(=O)(=O)N1CCC3(CC1)N=C(NC3=O)c1cc(cc(C(F)(F)F)c1)OCC/C=C/CNC(=O)CN(C)C2=O` [Compound 1422], under setting [1], the “cAMP production activity (%)” value is given as 15%.

Regarding `Cc1cc(C(=O)N2CCCC2)ccc1/C=C/S(=O)(=O)N1CCC2(CC1)N=C(c1cccc(C(F)(F)F)c1F)NC2=O` [Compound 248, 2-(2-fluoro-3-trifluoromethyl-phenyl)-8-{(E)-2-[2-methyl-4-(pyrrolidine-1-carbonyl)-phenyl]-ethenesulfonyl}-1,3,8-triaza-spiro[4.5]dec-1-en-4-one], the “cAMP production activity (%)” value under setting [1] came to 66%. On the same count and under the same terms, the same measure for `[2H]C([2H])([2H])C([2H])(Oc1ccc(C2=NC3(CCN(S(=O)(=O)/C=C/c4c(C)cc(C(=O)N5CCC(O)(CF)CC5)cc4C)CC3)C(=O)N2)cc1C(F)(F)F)C([2H])([2H])[2H]` [Compound 1262, 8-{(E)-2-[4-(4-fluoromethyl-4-hydroxy-piperidine-1-carbonyl)-2,6-dimethyl-phenyl]-ethenesulfonyl}-2-(4-[1,2,2,2,2,2,2-^2H7]isopropoxy-3-trifluoromethyl-phenyl)-1,3,8-triaza-spiro[4.5]dec-1-en-4-one]: 90%.
